Assay results from patent US20240158391A1, “DERIVATIVES OF 4-(IMIDAZO[1,2-A]PYRIDIN-3-YL)-N-(PYRIDIN-3-YL) PYRIMIDIN-2- AMINE FOR TREATING PROLIFERATIVE DISEASES AND CONDITIONS” (AUCENTRA THERAPEUTICS PTY LTD, priority 2019, published 2024).

Experiments:
CDK1/CyclinB = CDK1/CyclinB (Homo sapiens, UniProt P06493); experiment: ADP Glo kinase assay, CDK1/CyclinB; assay type: biochemical; conditions: for Ki: Km ATP, read-out: Enzymatic inhibition, Ki, CDK1 B; for remaining activity at 1 µM: compound at 1 μM, read-out: Residual enzymatic activity (%) at 1 μM, CDK1 B
Chain of CDK1/CyclinB (P06493 whole entry, species assumed): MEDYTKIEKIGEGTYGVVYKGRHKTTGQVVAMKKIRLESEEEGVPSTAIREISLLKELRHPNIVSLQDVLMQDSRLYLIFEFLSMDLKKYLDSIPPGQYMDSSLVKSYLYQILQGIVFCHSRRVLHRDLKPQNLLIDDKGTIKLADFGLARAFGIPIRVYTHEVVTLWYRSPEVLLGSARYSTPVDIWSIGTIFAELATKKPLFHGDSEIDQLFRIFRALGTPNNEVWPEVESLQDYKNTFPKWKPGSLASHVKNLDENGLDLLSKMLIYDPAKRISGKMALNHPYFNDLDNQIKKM
Chain of CDK1/CyclinB (P14635 whole entry partner, species assumed): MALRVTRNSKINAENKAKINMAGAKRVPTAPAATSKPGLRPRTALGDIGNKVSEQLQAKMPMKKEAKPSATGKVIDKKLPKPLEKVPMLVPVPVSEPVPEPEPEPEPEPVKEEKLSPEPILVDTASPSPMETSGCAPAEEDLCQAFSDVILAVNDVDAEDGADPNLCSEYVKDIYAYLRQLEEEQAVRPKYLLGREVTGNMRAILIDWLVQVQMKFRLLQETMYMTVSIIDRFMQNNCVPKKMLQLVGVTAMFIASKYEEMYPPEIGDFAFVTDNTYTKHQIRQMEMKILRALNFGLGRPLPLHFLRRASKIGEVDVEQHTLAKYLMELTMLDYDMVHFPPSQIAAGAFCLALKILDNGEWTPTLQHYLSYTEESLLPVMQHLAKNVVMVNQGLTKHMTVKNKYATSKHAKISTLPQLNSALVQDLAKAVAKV
In short: (§1)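 Test compounds were run as 1:3 serial dilutions over 10 concentrations (10-0.0005 μM) in 0.5% DMSO. Kinase reactions proceeded for an optimised time at room temperature before being stopped with ADP Glo reagent.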

CDK2/CyclinA2 = CDK2/CyclinA2 (Homo sapiens, UniProt P24941); experiment: ADP Glo kinase assay, CDK2/CyclinA2; assay type: biochemical; conditions: for remaining activity at 1 µM: compound at 1 μM, read-out: Residual enzymatic activity (%) at 1 μM, CDK2 A; for Ki: Km ATP, read-out: Enzymatic inhibition, Ki, CDK2 A
In short: as §1

CDK4/CyclinD1 = CDK4/CyclinD1 (Homo sapiens, UniProt P11802); experiment: ADP Glo kinase assay, CDK4/CyclinD1; assay type: biochemical; conditions: for remaining activity at 1 µM: compound at 1 μM, read-out: Residual enzymatic activity (%) at 1 μM, CDK4 D1; for Ki: Km ATP, read-out: Enzymatic inhibition, Ki, CDK4 D1
Chain of CDK4/CyclinD1 (P11802 whole entry, species assumed): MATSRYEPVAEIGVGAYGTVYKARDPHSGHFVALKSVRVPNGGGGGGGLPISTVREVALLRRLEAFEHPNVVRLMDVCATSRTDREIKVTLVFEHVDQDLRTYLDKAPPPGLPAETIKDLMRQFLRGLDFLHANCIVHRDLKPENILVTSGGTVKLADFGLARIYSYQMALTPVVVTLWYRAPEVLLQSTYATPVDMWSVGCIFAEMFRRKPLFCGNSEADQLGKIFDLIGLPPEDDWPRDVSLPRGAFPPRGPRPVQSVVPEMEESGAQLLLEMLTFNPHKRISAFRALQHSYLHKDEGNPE
Chain of CDK4/CyclinD1 (P24385 whole entry partner, species assumed): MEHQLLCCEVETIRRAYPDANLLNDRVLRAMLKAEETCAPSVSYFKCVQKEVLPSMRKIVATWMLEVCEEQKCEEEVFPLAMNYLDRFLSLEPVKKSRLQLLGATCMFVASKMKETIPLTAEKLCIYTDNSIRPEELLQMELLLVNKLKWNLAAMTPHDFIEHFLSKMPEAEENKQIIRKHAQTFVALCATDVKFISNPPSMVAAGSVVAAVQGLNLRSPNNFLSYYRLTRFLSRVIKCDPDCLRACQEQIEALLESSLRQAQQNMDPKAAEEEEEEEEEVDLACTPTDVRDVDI
In short: as §1

CDK6/CyclinD3 = CDK6/CyclinD3 (Homo sapiens, UniProt Q00534); experiment: ADP Glo kinase assay, CDK6/CyclinD3; assay type: biochemical; conditions: for Ki: Km ATP, read-out: Enzymatic inhibition, Ki, CDK6 D3; for remaining activity at 1 µM: compound at 1 μM, read-out: Residual enzymatic activity (%) at 1 μM, CDK6 D3
Chain of CDK6/CyclinD3 (Q00534 whole entry, species assumed): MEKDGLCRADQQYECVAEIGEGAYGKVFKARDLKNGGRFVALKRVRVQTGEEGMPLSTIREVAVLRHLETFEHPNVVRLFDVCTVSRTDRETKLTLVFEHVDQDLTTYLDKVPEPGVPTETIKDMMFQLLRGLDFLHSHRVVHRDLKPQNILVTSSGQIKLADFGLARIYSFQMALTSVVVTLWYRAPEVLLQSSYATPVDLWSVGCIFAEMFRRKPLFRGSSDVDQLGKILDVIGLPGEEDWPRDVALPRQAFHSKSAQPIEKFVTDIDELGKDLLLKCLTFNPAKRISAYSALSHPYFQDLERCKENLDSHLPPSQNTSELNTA
Chain of CDK6/CyclinD3 (P30281 whole entry partner, species assumed): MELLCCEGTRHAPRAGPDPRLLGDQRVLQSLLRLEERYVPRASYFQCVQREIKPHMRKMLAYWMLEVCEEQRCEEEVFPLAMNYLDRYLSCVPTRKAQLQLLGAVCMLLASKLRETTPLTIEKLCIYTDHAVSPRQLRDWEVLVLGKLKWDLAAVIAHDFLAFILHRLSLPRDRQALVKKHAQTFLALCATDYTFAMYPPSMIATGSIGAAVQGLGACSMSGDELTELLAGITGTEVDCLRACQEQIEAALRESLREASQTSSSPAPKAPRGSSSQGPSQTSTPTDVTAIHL
In short: as §1

CDK7/CyclinH/Mat1 = CDK7/CyclinH/Mat1 (Homo sapiens, UniProt P50613); experiment: ADP Glo kinase assay, CDK7/CyclinH/Mat1; assay type: biochemical; conditions: for Ki: Km ATP, read-out: Enzymatic inhibition, Ki, CDK7 H; for remaining activity at 1 µM: compound at 1 μM, read-out: Residual enzymatic activity (%) at 1 μM, CDK7 H
Chain of CDK7/CyclinH/Mat1 (P50613 whole entry, species assumed): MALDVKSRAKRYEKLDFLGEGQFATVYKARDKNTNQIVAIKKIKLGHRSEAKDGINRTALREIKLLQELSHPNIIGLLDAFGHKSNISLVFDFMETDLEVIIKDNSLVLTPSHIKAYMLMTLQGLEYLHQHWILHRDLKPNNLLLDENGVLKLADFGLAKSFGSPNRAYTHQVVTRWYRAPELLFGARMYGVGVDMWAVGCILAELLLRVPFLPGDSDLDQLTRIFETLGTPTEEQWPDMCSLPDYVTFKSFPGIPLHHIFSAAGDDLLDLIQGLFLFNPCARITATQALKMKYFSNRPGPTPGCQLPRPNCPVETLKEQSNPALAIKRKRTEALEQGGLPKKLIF
Chain of CDK7/CyclinH/Mat1 (P51946 whole entry partner, species assumed): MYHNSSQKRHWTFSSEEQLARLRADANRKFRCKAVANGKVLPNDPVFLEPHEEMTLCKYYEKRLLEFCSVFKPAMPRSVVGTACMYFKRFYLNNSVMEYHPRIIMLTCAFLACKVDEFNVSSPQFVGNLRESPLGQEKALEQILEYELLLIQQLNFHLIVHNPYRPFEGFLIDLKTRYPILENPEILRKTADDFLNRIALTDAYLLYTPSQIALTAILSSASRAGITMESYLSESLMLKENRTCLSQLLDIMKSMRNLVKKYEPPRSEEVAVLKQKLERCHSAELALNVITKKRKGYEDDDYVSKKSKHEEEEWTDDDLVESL
Chain of CDK7/CyclinH/Mat1 (P51948 whole entry partner, species assumed): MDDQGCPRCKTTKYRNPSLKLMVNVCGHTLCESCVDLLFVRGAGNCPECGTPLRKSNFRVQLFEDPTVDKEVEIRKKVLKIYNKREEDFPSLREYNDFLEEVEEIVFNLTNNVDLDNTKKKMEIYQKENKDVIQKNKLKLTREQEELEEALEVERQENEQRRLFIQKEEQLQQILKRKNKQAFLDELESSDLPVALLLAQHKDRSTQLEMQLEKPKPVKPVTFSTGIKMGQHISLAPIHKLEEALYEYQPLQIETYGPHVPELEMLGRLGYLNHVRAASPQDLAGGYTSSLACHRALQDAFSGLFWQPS
In short: as §1

CDK9/CyclinT1 = CDK9/CyclinT1 (Homo sapiens, UniProt P50750); experiment: ADP Glo kinase assay, CDK9/CyclinT1; assay type: biochemical; conditions: CDK9/CyclinT1; Km ATP; read-out: Enzymatic inhibition, Ki, CDK9 T1
Chain of CDK9/CyclinT1 (P50750 whole entry, species assumed): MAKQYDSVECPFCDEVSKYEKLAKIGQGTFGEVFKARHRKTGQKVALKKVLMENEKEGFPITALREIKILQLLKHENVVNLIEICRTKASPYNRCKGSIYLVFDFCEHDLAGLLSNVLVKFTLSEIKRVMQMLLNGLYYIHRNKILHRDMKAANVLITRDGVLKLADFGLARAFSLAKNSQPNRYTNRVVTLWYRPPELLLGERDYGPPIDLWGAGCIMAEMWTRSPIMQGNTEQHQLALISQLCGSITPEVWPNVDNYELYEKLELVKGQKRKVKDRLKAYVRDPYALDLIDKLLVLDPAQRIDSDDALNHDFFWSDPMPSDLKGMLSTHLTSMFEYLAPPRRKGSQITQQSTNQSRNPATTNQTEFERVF
Chain of CDK9/CyclinT1 (O60563 whole entry partner, species assumed): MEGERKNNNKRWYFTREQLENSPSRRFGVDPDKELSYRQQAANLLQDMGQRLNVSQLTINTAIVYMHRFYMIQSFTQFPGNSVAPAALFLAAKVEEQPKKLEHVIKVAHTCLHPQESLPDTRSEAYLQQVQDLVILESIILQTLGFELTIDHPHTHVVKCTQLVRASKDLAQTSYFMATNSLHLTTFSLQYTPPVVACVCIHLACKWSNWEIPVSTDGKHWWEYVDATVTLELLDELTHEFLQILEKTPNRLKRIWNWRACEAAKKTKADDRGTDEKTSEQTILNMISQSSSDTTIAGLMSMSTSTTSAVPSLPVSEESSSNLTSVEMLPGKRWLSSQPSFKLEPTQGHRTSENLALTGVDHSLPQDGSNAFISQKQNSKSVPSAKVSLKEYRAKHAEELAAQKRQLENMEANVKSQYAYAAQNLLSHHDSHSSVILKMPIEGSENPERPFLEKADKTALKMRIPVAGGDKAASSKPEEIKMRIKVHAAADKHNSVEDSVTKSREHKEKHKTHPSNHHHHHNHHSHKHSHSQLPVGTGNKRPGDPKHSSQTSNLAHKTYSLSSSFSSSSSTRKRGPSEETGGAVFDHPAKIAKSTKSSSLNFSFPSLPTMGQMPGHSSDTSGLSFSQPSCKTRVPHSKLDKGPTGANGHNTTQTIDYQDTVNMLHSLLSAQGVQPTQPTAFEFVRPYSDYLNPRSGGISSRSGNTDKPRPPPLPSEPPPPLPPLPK
In short: as §1

FLT3-ITD = molecular target: T1, FLT3-ITD (Homo sapiens, UniProt P36888); experiment: ADP Glo kinase assay, FLT3-ITD; assay type: biochemical; conditions: Km ATP 100 μM, read-out: Enzymatic inhibition, Ki, FLT3-ITD
T1 sequence (P36888 1-993): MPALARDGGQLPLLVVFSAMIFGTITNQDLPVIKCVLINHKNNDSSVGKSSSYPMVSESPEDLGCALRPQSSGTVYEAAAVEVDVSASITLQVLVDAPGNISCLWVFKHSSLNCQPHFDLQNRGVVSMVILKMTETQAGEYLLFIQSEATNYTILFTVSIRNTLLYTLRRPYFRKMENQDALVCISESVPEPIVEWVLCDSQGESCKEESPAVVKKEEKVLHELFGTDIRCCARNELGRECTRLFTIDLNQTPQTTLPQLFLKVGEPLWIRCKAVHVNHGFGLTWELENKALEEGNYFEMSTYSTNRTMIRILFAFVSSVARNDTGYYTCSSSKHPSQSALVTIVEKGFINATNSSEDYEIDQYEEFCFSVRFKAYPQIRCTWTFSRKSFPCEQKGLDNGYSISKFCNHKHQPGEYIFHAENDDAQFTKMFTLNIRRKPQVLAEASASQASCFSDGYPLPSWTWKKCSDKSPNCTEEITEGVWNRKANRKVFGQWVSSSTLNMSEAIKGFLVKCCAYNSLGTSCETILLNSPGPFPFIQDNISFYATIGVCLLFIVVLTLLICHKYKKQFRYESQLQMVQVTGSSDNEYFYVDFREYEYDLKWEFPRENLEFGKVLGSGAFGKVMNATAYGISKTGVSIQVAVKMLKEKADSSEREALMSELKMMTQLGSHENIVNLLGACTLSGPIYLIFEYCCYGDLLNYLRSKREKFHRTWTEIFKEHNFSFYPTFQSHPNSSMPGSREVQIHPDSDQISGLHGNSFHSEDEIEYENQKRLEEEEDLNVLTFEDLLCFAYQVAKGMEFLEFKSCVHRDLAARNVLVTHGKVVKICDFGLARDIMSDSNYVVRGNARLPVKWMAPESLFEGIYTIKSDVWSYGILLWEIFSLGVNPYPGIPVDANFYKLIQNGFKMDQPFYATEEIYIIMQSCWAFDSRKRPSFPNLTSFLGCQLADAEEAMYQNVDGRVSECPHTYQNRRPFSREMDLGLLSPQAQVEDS
In short: as §1

MV-4-11 = experiment: Proliferation assay (resazurin, leukemia cell lines), MV-4-11; assay type: cell-based; conditions: Homo sapiens, MV4-11, read-out: 72 h Growth inhibition GI50, MV-4-11 cells
Source text: The following compounds were used as comparators.

Ki (CDK1/CyclinB) [nM]	remaining activity at 1 µM (CDK2/CyclinA2) [%]	remaining activity at 1 µM (CDK4/CyclinD1) [%]	Ki (CDK6/CyclinD3) [nM]	Ki (CDK7/CyclinH/Mat1) [nM]	Ki (CDK9/CyclinT1) [nM]	Ki (FLT3-ITD) [nM]	GI50 (MV-4-11) [nM]	remaining activity at 1 µM (CDK1/CyclinB) [%]	remaining activity at 1 µM (CDK6/CyclinD3) [%]	remaining activity at 1 µM (CDK7/CyclinH/Mat1) [%]	Ki (CDK2/CyclinA2) [nM]	Ki (CDK4/CyclinD1) [nM]	Structure (SMILES)
635	28	33	> 5000	3970	8	6	11	–	–	–	–	–	CS(=O)(=O)N1CCN(c2ccc(Nc3nccc(-c4cnc5ccc(-c6cccs6)cn45)n3)cn2)CC1 [Compound 21, N-(6-(4-(Methylsulfonyl)piperazin-1-yl)pyridin-3-yl)-4-(6-(thiophen-2-yl)imidazo[1,2-a]pyridin-3-yl)pyrimidin-2-amine]
–	22	53	–	–	91	32	27	31	70	77	–	–	CC(=O)N1CCN(c2ccc(Nc3nccc(-c4cnc5ccccn45)n3)cn2)CC1 [Compound 41, 1-(4-(5-((4-(Imidazo[1,2-a]pyridin-3-yl)pyrimidin-2-yl)amino)pyridin-2-yl)piperazin-1-yl)ethan-1-one]
–	100	89	–	–	368	160	78	89	93	80	–	–	CCCNc1ccc(Nc2nccc(-c3cnc4ccc(-c5ccccc5)cn34)n2)cn1 [Compound 75, N^5-(4-(6-Phenylimidazo[1,2-a]pyridin-3-yl)pyrimidin-2-yl)-N^2-propylpyridine-2,5-diamine]
–	–	94	–	297	96	5	740	100	44	–	1080	–	c1ccc(-c2ccc3ncc(-c4ccnc(Nc5ccc(N6CCC6)nc5)n4)n3c2)cc1 [Compound 25, N-(6-(Azetidin-1-yl)pyridin-3-yl)-4-(6-phenylimidazo[1,2-a]pyridin-3-yl)pyrimidin-2-amine]
–	44	52	–	–	234	86	32	70	49	88	–	–	CCS(=O)(=O)N1CCN(c2ccc(Nc3nccc(-c4cnc5ccc(Br)cn45)n3)cn2)CC1 [Compound 59, 4-(6-Bromoimidazo[1,2-a]pyridin-3-yl)-N-(6-(4-(ethylsulfonyl)piperazin-1-yl)pyridin-3-yl)pyrimidin-2-amine]
198	–	–	–	–	34	10	18	–	34	31	131	530	CN1CCN(c2ccc(Nc3nccc(-c4cnc5ccc(C(F)(F)F)cn45)n3)cn2)CC1 [Compound 36, N-(6-(4-Methylpiperazin-1-yl)pyridin-3-yl)-4-(6-(trifluoromethyl)imidazo[1,2-a]pyridin-3-yl)pyrimidin-2-amine]
–	–	94	–	–	163	180	262	90	99	93	52	–	COC(=O)c1ccc(Nc2nccc(-c3cnc4ccc(Br)cn34)n2)cn1 [Compound 82, Methyl 5-((4-(6-bromoimidazo[1,2-a]pyridin-3-yl)pyrimidin-2-yl)amino)picolinate]
–	–	47	–	205	143	70	98	84	22	–	41	–	CN(C)C1CCN(Cc2ccc(Nc3nccc(-c4cnc5ccc(Br)cn45)n3)cn2)CC1 [Compound 81, 4-(6-Bromoimidazo[1,2-a]pyridin-3-yl)-N-(6-((4-(dimethylamino)piperidin-1-yl)methyl)pyridin-3-yl)pyrimidin-2-amine]
776	33	83	> 5000	1690	16	4	17	–	–	–	–	–	CS(=O)(=O)N1CCN(c2ccc(Nc3nccc(-c4cnc5ccc(-c6cccnc6)cn45)n3)cn2)CC1 [Compound 19, N-(6-(4-(Methylsulfonyl)piperazin-1-yl)pyridin-3-yl)-4-(6-(pyridin-3-yl)imidazo[1,2-a]pyridin-3-yl)pyrimidin-2-amine]
–	25	98	–	> 5000	> 5000	257	337	69	61	–	–	–	COC(=O)N1CCC(c2ccc(Nc3ncc(F)c(-c4cnc5ccc(-c6ccccc6)cn45)n3)cn2)CC1 [Compound 29, Methyl 4-(5-((5-fluoro-4-(6-phenylimidazo[1,2-a]pyridin-3-yl)pyrimidin-2-yl)amino)pyridin-2-yl)piperidine-1-carboxylate]
199	–	–	243	770	10	5	6	–	–	–	38	94	CN1CCN(c2ccc(Nc3nccc(-c4cnc5ccc(Cl)cn45)n3)cn2)CC1 [Compound 22, 4-(6-Chloroimidazo[1,2-a]pyridin-3-yl)-N-(6-(4-methylpiperazin-1-yl)pyridin-3-yl) pyrimidin-2-amine]
–	39	86	159	–	142	24	41	56	–	71	–	–	CN(C)c1ccc(Nc2nccc(-c3cnc4ccc(Br)cn34)n2)cn1 [Compound 65, N^5-(4-(6-Bromoimidazo[1,2-a]pyridin-3-yl)pyrimidin-2-yl)-N^2,N^2-dimethylpyridine-2,5-diamine]
500	–	–	299	410	494	6	7	–	–	–	170	408	Cc1cnc(Nc2ccc(N3CCNCC3)nc2)nc1-c1cnc2ccccn12 [Compound 13, 4-(Imidazo[1,2-a]pyridin-3-yl)-5-methyl-N-(6-(piperazin-1-yl)pyridin-3-yl)pyrimidin-2-amine]
317	–	–	716	2360	5	79	7	–	–	–	98	712	CN1CCN(c2ccc(Nc3nccc(-c4cnc5ccc(Br)cn45)n3)cn2)CC1 [Compound 5, 4-(6-Bromoimidazo[1,2-a]pyridin-3-yl)-N-(6-(4-methylpiperazin-1-yl)pyridin-3-yl)pyrimidin-2-amine]
